Legend:
[1] = system: HTPu-var-1-G4 (human telomere variant-1, 23-mer) (DNA, G4) TAGGGTTAGGGTTAGGGTTAGGG; assay: tryptophan fluorescence quenching titration; conditions: 30 mM buffer pH 7.0, 0.5 mM EDTA, 25 °C, 4 μM peptide titrated with DNA
[2] = system: HTPu-var-1-G4 (human telomere variant-1, 23-mer) (DNA, G4) TAGGGTTAGGGTTAGGGTTAGGG; assay: electrophoretic mobility shift assay with complementary strand HTPy-var-1; conditions: 100 mM K+; 30 mM sodium cacodylate pH 7.0, 1 mM EDTA; DNA:peptide 1:120, 1:160; excess HTPy-var-1 added afterwards
[3] = system: HTPu-var-1-G4 (human telomere variant-1, 23-mer) (DNA, G4) TAGGGTTAGGGTTAGGGTTAGGG; assay: circular dichroism titration; conditions: 30 mM sodium cacodylate pH 7.0, 0.5 mM EDTA, 6 μM DNA, apparent constant
[4] = system: HTPu-var-1-G4 (human telomere variant-1, 23-mer) (DNA, G4) TAGGGTTAGGGTTAGGGTTAGGG; assay: UV melting at 295 nm; conditions: 30 mM sodium cacodylate pH 7.0, 0.5 mM EDTA, 4 μM DNA

Kb ([1]; 100 mM K+): 0.71 ± 0.42 µM
Kb ([1]; 100 mM Na+): 0.46 ± 0.11 µM
binding [2]: yes
Kb ([3]; 100 mM K+): 290 ± 10 µM
Kb ([3]; 100 mM Na+): 260 ± 30 µM
ΔTm ([4]; 100 mM K+, DNA:peptide 1:40, non-monotonic (66.1 at 1:80)): -1.0 °C
ΔTm ([4]; 100 mM Na+, DNA:peptide 1:230): -0.9 °C
Substance: H-VAQKW-OH

— article PMC9358547 (2022)
